According to PMC10780766, “From Bench to Bedside: Patient-Oriented Radiopharmaceutical Development in Nuclear Medicine Based on the Example of [^89Zr]Zr-PSMA-DFO” (Molecules, 2023):
Like-named read-outs stand apart in the source and are kept apart here.

Experiments:
[1] = test system: PSMA (prostate-specific membrane antigen) on prostate cancer cells; set-up: method as in PMID 34370181; conditions: cited from earlier work
[2] = test system: PSMA (prostate-specific membrane antigen) on prostate cancer cells; set-up: method as in PMID 34370181; conditions: cited from earlier work; remark: listed apart in the source
[3] = test system: PSMA binding sites (PSMA-positive LNCaP cell lines); set-up: method as in PMID 34370181; conditions: LNCaP cells; cited from earlier work
LNCaP tumors = test system: LNCaP tumors; set-up: method as in PMID 34370181; conditions: cited from earlier work
LNCaP tumor xenograft = test system: LNCaP tumor xenograft; set-up: method as in PMID 34370181; conditions: LNCaP tumor xenografts, n = 5, cited from earlier work
PSMA-positive lesions = test system: PSMA-positive lesions; set-up: method as in PMID 34326129; conditions: cited from earlier work
[4] = set-up: method as in PMID 34370181; conditions: up to 7 days at 37 °C; cited from earlier work
[5] = Storage of iron-free precursor in aqueous solution, then labeling, cell binding and internalization; assay type: physicochemical; conditions: storage at 5 °C in an aqueous solution for 6 months
Description: Such synthesis modules have been specifically designed to enable the versatile and efficient routine production of various radiopharmaceuticals while adhering to GMP requirements. The concept of disposable cassettes pursued in this approach allows the user to label different radionuclides on the same synthesis device without the risk of cross-contamination. The disposable cassettes include all necessary vessels, reagents, and purification columns. The automated process concludes with a final sterile filtration, including a filter integrity test. Iron removal should therefore take place before the actual labeling process. We wanted to verify whether it is possible to establish a stock of an iron-free PSMA-DFO precursor, stored in an aqueous solution at 4 °C in the refrigerator, and to determine its shelf life. This was done by investigating whether the iron-free precursor can be labeled with zirconium-89 after several months of storage without compromising the yield, cell binding, and internalization.

Molecule	Specific binding as a percentage of the total cellular activity ([1]; 0.5 h) [%]	Specific binding as a percentage of the total cellular activity ([1]; 1 h) [%]	Specific binding as a percentage of the total cellular activity ([1]; 2 h) [%]	Specific binding as a percentage of the total cellular activity ([1]; 3 h) [%]	Specific binding as a percentage of the total cellular activity ([1]; 5 h) [%]	Specific internalization as a percentage of the total cellular activity ([2]; 0.5 h) [%]	Specific internalization as a percentage of the total cellular activity ([2]; 1 h) [%]	Specific internalization as a percentage of the total cellular activity ([2]; 2 h) [%]	Specific internalization as a percentage of the total cellular activity ([2]; 3 h) [%]	Specific internalization as a percentage of the total cellular activity ([2]; 5 h) [%]	Bmax [3] [fmol/10^6 Cells]	Kd [3] [nM]	tumor/blood ratio (LNCaP tumor xenograft; 4 h after i.v. injection)	tumor/muscle ratio (LNCaP tumor xenograft; 4 h after i.v. injection)	further results
[^177Lu]Lu-PSMA 617	16.0 ± 0.2	19.7 ± 1.1	30.4 ± 1.0	35.5 ± 1.0	40.7 ± 2.4	4.1 ± 0.1	6.7 ± 0.1	12.8 ± 1.3	16.9 ± 0.2	22.9 ± 0.9	2021 ± 66	5.81 ± 0.71			
CC(=O)N([O-])CCCCCNC(=O)CCC(=O)N([O-])CCCCCNC(=O)CCC(=O)N([O-])CCCCCNC(=O)CCC(=O)NCC1CCC(C(=O)NC(Cc2ccc3ccccc3c2)C(=O)NCCCCC(NC(=O)NC(CCC(=O)O)C(=O)O)C(=O)O)CC1.[89Zr+4] (stereo not shown) [[^89Zr]Zr-PSMA-DFO]	29.1 ± 2.1	38.5 ± 2.3	46.5 ± 1.3	48.8 ± 1.0	49.4 ± 1.3	9.5 ± 0.6	15.3 ± 1.0	22.3 ± 1.0	24.4 ± 0.6	30.4 ± 1.3	1428 ± 42	4.97 ± 0.57			Tumor visualization at later time points (LNCaP tumors; PET scans up to 48 h after injection): clear tumor visualization; Radioactive background radiation in the kidneys and bladder (LNCaP tumors; after 48 h, mice with LNCaP tumor xenografts): minimal; Ability to visualize tumors compared with [68Ga]Ga-PSMA-11 or [18F]F-JK-PSMA-7 (LNCaP tumors; early time points (1 h after injection)): similar; tumor/blood ratio (LNCaP tumor xenograft; 24 h after i.v. injection): 309 ± 89; tumor/muscle ratio (LNCaP tumor xenograft; 24 h after i.v. injection): 450 ± 38; Detected lesions whose validity was supported (histology, follow-up after radiation therapy, additional imaging) (PSMA-positive lesions): 14 out of 15; Level of radioactivity in the 15 lesions (SUVmax) versus the original PET scans (PSMA-positive lesions): significantly higher; Number of PSMA-positive lesions detected (PSMA-positive lesions; in 8 out of 14 patients): 15; Patients in whom PSMA-positive lesions were detected (PSMA-positive lesions; patients with BCR and initially negative PET scans using the usual tracers): 8 out of 14; Stability in human serum [4]: very high stability; Stability in phosphate-buffered saline (PBS) [4]: very high stability
COc1nc(F)ccc1C(=O)NCCCCC(NC(=O)NC(CCC(=O)O)C(=O)O)C(=O)O (stereo not shown) [[^18F]F-JK-PSMA 7]												5.07 ± 0.45			
CC(=O)N(O)CCCCCNC(=O)CCC(=O)N(O)CCCCCNC(=O)CCC(=O)N(O)CCCCCNC(=O)CCC(=O)NCC1CCC(C(=O)NC(Cc2ccc3ccccc3c2)C(=O)NCCCCC(NC(=O)NC(CCC(=O)O)C(=O)O)C(=O)O)CC1 (stereo not shown) [N-sucDFO-PSMA]															Chemical reactivity, specific binding and internalization after storage [5]: remained unaffected
O=C([O-])CN(CCN(CC(=O)[O-])Cc1cc(CCC(=O)NCCCCCC(=O)NCCCC[C@H](NC(=O)N[C@@H](CCC(=O)O)C(=O)O)C(=O)O)ccc1[O-])Cc1cc(CCC(=O)O)ccc1[O-].[68Ga+3].[OH3+] [[^68Ga]Ga-PSMA 11]	27.7 ± 0.7	35.3 ± 3.1	42.0 ± 1.2	46.3 ± 2.1	48.3 ± 1.2	8.0 ± 0.4	14.0 ± 1.9	20.3 ± 1.5	23.3 ± 0.8	27.4 ± 1.6	1746 ± 53	5.15 ± 0.6	112 ± 57	58 ± 36	
COc1nc([18F])ccc1C(=O)NCCCCC(NC(=O)NC(CCC(=O)O)C(=O)O)C(=O)O (stereo not shown) [[^18F]F-JK-PSMA 7]	23.8 ± 0.6	32.6 ± 0.4	38.8 ± 1.3	45.2 ± 1.9	45.8 ± 0.4	4.7 ± 0.4	11.1 ± 0.7	17.2 ± 1.3	20.8 ± 0.6	21.8 ± 0.3	2702 ± 61		175 ± 30	114 ± 14	
